Legend:
[1] = Tests with peroxidized compounds: reducing behaviour; type: biochemical
[2] = "Peroxidase" activity: reduction of 13-monoperoxide of linoleic acid (L-OOH); type: biochemical; settings: 10 mM; 13-monoperoxide linoleic acid 0.5 mM; control 36.7
Experimental: Lipid peroxides evolution is monitored with the help of 3 methods:
1°) spectrophotometric measure at 233 nm
(O. S. Privett, C. Nickell, W. O. Lundberg, and P. D. Bayer, dans J.Am.Oil Chem. Soc, Vol 32 (1955), P.505-511
2°) Iodometric dosage: M.Hicks' and J. M. Gebicki's method, Analytical Biochemistry, vol 99 (1979), p 249-253.
3°) Chromatography on silica gel plate (hexane/ether/acetic acid 8/7/0.1).
(a) 13-monoperoxide linoleic acid 0.5 mM without reducing agent (preparation according to H. W. Gardner's method Lipids, Vol.10 (1975), p. 248-252).

[3] = Inhibition of phosphatidylcholine liposome peroxidation (Fe/ascorbic acid; TBA/MDA); settings: for MDA per mg of phospholipids: control 4.4
From the text: oxidation substrate: phosphatidylcholine liposomes
free radicals generating system : Fe/ascorbic acid detection: thiobarbituric acid (TBA)/malondialdehyde (MDA)

[4] = Inhibition of linoleic acid peroxidation (Fe/ascorbic acid; TBA/MDA); type: biochemical; settings: 25 mM (mixture: 25 mM each), linoleic acid 0.25 mg/ml; for MDA per mg of linoleic acid: control 7.95
Experimental: oxidation substrate: linoleic acid (0.25 mg/ml), free radicals generating system: Fe/ascorbic acid detection: thiobarbituric acid (TBA)/malondialdehyde (MDA)

[5] = "Peroxidase" type activity on liposome model: reduction of phosphatidylcholine hydroperoxides (PC-OOH); type: biochemical
Experimental: The "peroxidase" type activity also has been evaluated on a "liposome" model. The phosphatidylcholine hydroperoxides (PC-OOH) are prepared according to a similar procedure to the one already described for the linoleic acid monoperoxide.
The peroxide species reduction is followed by dosing the remaining peroxides according to the method laid down by Hicks M and Gebicki J. M.--Anal. Biochem, vol 99, (1979), p. 249-253.

[6] = Inhibition of deoxyribose oxidation (superoxide from xanthine oxidase/hypoxanthine; TBA/MDA detection); type: biochemical; settings: 10 mM
From the text: Several in vitro tests have been carried out in order to reveal the evoked different antioxidant properties.
Experimental procedure described by J. M. C. Gutteridge in Biochemistry Journal, vol. 224 (1984), p. 761-767: oxidation substrate: deoxyribose
Superoxide anions production system: xanthine oxidase/hypoxanthine detection: thiobarbituric acid/malondialdehyde (MDA)

[7] = test system: cataract; assay: Cataract patients: modification of the visual acuity at the end of 24 months; type: in vivo; settings: 1% in isotonic saline, only one daily local dose
From the text: This example concerns the utilization of the β-alanyl-histamine to treat patients affected by cataract.
The study has been designed for a prospective evaluation of the modifications of the lens opacity in patients effected by cataract. All the patients have undergone an initial ophtalmic examination. It involved the making of the medical historical record of the patient, a measurement of the visual acuity at a maximum correction, direct or indirect ophtalmoscopies, an evaluation of the opacities with the slit lamp, a clinical grading of the lens after maximal mydriasis, a classification according to the cataract type, and lens pictures by retroillumination. Moreover, samples of blood have been taken at the beginning, then in follow-up for chemical analysis.
The general view has allowed to establish the initial state of patients before the treatment (definition of "base line").
Follow-up of ophtalmic examinations were carried out every two weeks for two months, then every month. They included maximum visual acuity after correction, direct or indirect ophtalmoscopies, a slit lamp examination, and after a maximum dilation of the pupil (excluding patients with primary open-angle glaucoma), a clinical lens grading, a classification of the cataract. Pictures also have been taken on lens observed by retroillumination or with the slit lamp.
In this study, differents groups have been determined, to be seen:
A group reference 1, with non-treated patients (5 patients, 7 eyes) […]
A group 3, has been submitted to the same treatment than the group 2, stimulated by an "attack type of treatment" during the first two weeks: 2 subcon-junctival junctival injections twice a week of 0.10 to 0.15 ml of the saline defined for the group 2 (3 patients, 4 eyes).
A group 4, which was given a local dose by way of an eye drop of isotonic saline twice a day (5 patients 7 eyes), the group 4 being like the group 1, a reference group.
Following the protocol described above, we determine the values of the optic density of the lens according to its opacity as well as the visual acuity, and the whole for 24 months. Considering these two parameters, we obtain tables giving results concerning the modification of the visual acuity at the end of 24 months in Tables 1 and 2, and the results concerning the modification of the visual opacity at the end of 24 months in Tables 3 and 4.

[8] = Protection of micro seaweed oil against oxidation (malondialdehyde dosage, one month); settings: 20 mmol per L oil
From the text: The pseudo-dipeptides products also can be used to protect cosmetic oils easily oxidizable, rich in unsaturated fatty acids formulated in cosmetic or dietetic.
It has been necessary to add 15 to 25 mmol of pseudo-dipeptides products of the invention per liter of oil according to the following formulation: […]
20 mmol of acetylated b-alanyl-histamine oil extracted from micro seaweed cultured in sea water very rich in unsaturated fatty acids, including EPA qs for 1L.
We have compared the ageing of this protected oil to the non-protected oil at the end of a month by the malondialdehyde dosage.

[9] = test system: murine splenocytes; assay: Immunostimulating activity in vitro on murine splenocytes (tritiated thymidine incorporation); type: cell-based; settings: average of three measures
From the text: The procedure is extracted from: J. Kunert-Radek, H. Stepien, K. Lyson and M. Pawlikowski--"Effects of calcium channel modulators on the proliferation of mouse spleen lymphocytes in vitro"--Agents and Actions, vol. 29, Nos 3-4 (1990), p. 254-258.
The cell proliferation is followed by the measurement of the extent of incorporation of tritriated thymidine in the cells, expressed in numbers of desintegrations per mn, deducted from the background.
The results obtained with an immunostimulator of reference, concanavaline A, are given as a comparison.
The immunostimulating effect is expressed by an Index of Stimulation (IS) [formula]
The given values are corresponding to the average of three measures.

[10] = test system: gastric ulcer; settings: rats with limited food-intake-time; cited from earlier work
[11] = test system: gingival and buccal mucosa; assay: Repairing activity on the mucosa in stomatitis gingivitis; type: in vivo, patients; settings: aqueous gel 0.28%
From the text: We have been able to study this action on stomatitis gingivitis of various origin (dental prothesis badly adapted, the taking by mistake of a corrosive liquid, and colbaltotherapy of the oropharyngeal aera.
In all the cases, the causes of deterioration of the gingival and buccal mucosa have been stopped. Over and above the classical treatments that were adapted and systematically given, was given to 50% of the patients, an aqueous orange flavour gel containing 0.28% of N-acetyl-3-phenyl-3-aminopropionyl-histamine.

[BH4-].[Na+] [NaBH4, sodium borohydride, reference compound]
reducing behaviour towards peroxidized compounds [1]: inhibits in an identical way the reaction of degradation | "peroxidase" activity [2]: 312.5 mol of L-OOH reduced/hour

NCCC(=O)N[C@@H](Cc1c[nH]cn1)C(=O)O [L-carnosine, β-alanyl-histidine, reference compound]
MDA per mg of phospholipids ([3]; 10 mM): 2.0 mol MDA per mg of phospholipid | % inhibition [4]: 59% | MDA per mg of linoleic acid [4]: 3.24 mol MDA per mg of linoleic aci | number of moles of PC-OOH reduced/initial number of moles of PC/hour ([5]; 10 mM): 3.16 × 10^-3 moles of PC-OOH reduced/initia | number of moles of PC-OOH reduced/initial number of moles of PC/hour ([5]; 25 mM): 3.65 × 10^-3 moles of PC-OOH reduced/initia | % inhibition of deoxyribose oxidation [6]: 37%

N[C@@H](Cc1c[nH]cn1)C(=O)O [Histidine]
% inhibition ([3]; 1 mM): -48% | MDA per mg of phospholipids ([3]; 1 mM): 6.6 mol MDA per mg of phospholipid

NCCC(=O)O [β-alanine]
% inhibition [4]: 0% | MDA per mg of linoleic acid [4]: 7.91 mol MDA per mg of linoleic aci

c1c[nH]cn1 [Imidazole]
% inhibition [4]: 11% | MDA per mg of linoleic acid [4]: 6.95 mol MDA per mg of linoleic aci

CC(=O)NCCC(=O)NCCc1c[nH]cn1 [N-acetyl-β-alanyl-histamine]
results of eye drop treatment versus those previously obtained [7]: identical to the ones previously obtained | protection against oxidation (malondialdehyde dosage) [8]: proves well the activity of the acetylated-β-alanyl-histamine in the protection against oxidation

concanavaline A [reference compound]
Index of Stimulation (IS) ([9]; 2.5 μg/ml): 4.8 | Index of Stimulation (IS) ([9]; 5 μg/ml): 25.1 | Index of Stimulation (IS) ([9]; 10 μg/ml): 20.5 | Index of Stimulation (IS) ([9]; 25 μg/ml): 12.6

N- (3-aminopropionyl)--L-histidinato zinc [Z-103]
gastric ulcer treatment [10]: good results

NCCc1c[nH]cn1 [Histamine, histamine]
% inhibition ([3]; 1 M (so in the source)): -45% | MDA per mg of phospholipids ([3]; 1 M (so in the source)): 6.4 mol MDA per mg of phospholipid | % inhibition ([3]; 10 M (so in the source)): -63% | MDA per mg of phospholipids ([3]; 10 M (so in the source)): 6.8 mol MDA per mg of phospholipid | % inhibition [4]: -32% | MDA per mg of linoleic acid [4]: 10.15 mol MDA per mg of linoleic aci

CC(=O)NC(CC(=O)NCCc1c[nH]cn1)c1ccccc1 (stereo not shown) [N-acetyl-3-phenyl-3-aminopropionyl-histamine]
tolerance [11]: excellent tolerance

— patent US5792784A, “Coupling product obtained from histamine and an amino acid” (Babizhayev; Marc, priority 1993, dated 1998)
